Measured values: US20080280953A1, “Agents Used for the Treatment of Seeds” (Bayer Cropscience AG, priority 2004, published 2008)
Where “and” joins values, the source holds several entries; their conditions need not be identical. Equal values may be shown once.

Tests used:
[1] = test system: black bean aphid (Aphis fabae); experiment: Aphis fabae test (seed application), Example J; assay type: in vivo; details: 90 g ai/unit (100,000 seeds), sugar beet seed treatment
Protocol: To prepare a suitable active compound preparation 1 part by weight of the active compound is mixed with the given amount of solvent and emulsifier and the concentrate is diluted to the desired concentration with water.
Sugar beet seed (Beta vulgaris) is treated with the active compound preparation and sown into soil. After ca. 4 week the beet plants are infected with the black bean aphid (Aphis fabae).
After the desired time the death rate in % is determined. Here 100% means that all aphids were killed; 0% means that no aphids were killed.

[2] = test system: leafminer fly (Liriomyza trifolii) larvae; experiment: Liriomyza trifolii test, spraying of kidney bean plants; assay type: in vivo; details: 100 ppm, spray on kidney bean plants
Protocol: To prepare a suitable active compound preparation 1 part by weight of the active compound is mixed with the given amount of solvent and emulsifier and the concentrate is diluted to the desired concentration with water containing emulsifier.
Kidney bean plants (Phaseolus vulgaris) that are infected with the larvae of the leafminer fly (Liriomyza trifolii) are treated by spraying with the active compound mixture at the desired concentration.
After the desired time the activity in % is determined.

Which “Activity in % after 7 d” value [1] does the source give for `CN(Cc1ccc(Cl)nc1)C1=CC(=O)OC1` [Compound 84] here?
Its value is 100%.

What about the “Activity in % after 7 d” value [2] of the same compound?
The value was 55% and 46%.
